In ChEMBL document CHEMBL1777688, “TRPV1 modulators: structure-activity relationships using a rational combinatorial approach” (Bioorg Med Chem Lett, 2011):

Key:
Format in all cases: cell-based
Settings in all cases: Oocyte
[1] = target: Transient receptor potential cation channel subfamily V member 1 (Rattus norvegicus) (UniProt O35433); experiment: Blockade of rat recombinant TRPV1 expressed in xenopus oocytes assessed as inhibition of capsaicin-induced whole-cell current at 10 uM at holding potential of -60 mV by electrophysiological assay relative to control
Chain of Transient receptor potential cation channel subfamily V member 1 (Rattus norvegicus) (O35433 whole entry): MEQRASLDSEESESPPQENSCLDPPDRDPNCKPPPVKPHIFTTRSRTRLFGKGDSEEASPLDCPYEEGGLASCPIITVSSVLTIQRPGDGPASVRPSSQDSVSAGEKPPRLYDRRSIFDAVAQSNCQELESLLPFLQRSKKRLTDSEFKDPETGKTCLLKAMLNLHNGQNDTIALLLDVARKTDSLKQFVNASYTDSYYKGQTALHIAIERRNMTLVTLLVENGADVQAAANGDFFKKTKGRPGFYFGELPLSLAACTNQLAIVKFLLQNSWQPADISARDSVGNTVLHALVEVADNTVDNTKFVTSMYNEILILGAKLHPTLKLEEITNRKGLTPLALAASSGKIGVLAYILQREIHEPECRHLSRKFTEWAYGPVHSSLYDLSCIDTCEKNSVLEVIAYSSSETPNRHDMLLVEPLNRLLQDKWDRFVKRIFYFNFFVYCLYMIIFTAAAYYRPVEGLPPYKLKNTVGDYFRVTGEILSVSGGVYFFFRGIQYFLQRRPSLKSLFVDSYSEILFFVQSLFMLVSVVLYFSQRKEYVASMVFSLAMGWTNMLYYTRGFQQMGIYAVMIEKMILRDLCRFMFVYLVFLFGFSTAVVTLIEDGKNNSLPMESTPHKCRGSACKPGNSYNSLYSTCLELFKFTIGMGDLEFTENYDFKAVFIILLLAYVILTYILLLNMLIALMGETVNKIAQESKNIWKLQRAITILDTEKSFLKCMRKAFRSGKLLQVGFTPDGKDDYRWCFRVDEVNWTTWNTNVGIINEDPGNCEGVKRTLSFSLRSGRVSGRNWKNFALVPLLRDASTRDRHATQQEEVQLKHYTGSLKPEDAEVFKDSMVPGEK

[2] = target: Transient receptor potential cation channel subfamily V member 1 (Rattus norvegicus) (UniProt O35433); experiment: Blockade of rat recombinant TRPV1 expressed in xenopus oocytes assessed as inhibition of capsaicin-induced whole-cell current at 1 uM at holding potential of -60 mV by electrophysiological assay relative to control
[3] = target: Glutamate NMDA receptor; GRIN1/GRIN2A (Homo sapiens) (UniProt Q05586+Q12879); experiment: Blockade of human recombinant NR1/NR2A expressed in xenopus oocytes assessed as inhibition of L-glutamate/glycine-induced whole-cell current at 10 uM at holding potential of -60 mV by electrophysiological assay relative to control

SMILES	inhibition [1] [%]	inhibition [2] [%]	inhibition [3] [%]
NC(=O)[C@H](Cc1c(Sc2ccccc2[N+](=O)[O-])[nH]c2ccccc12)NC(=O)[C@@H](N)CCN=C(N1CCCC1)N1CCCC1	76.1	23.5	13.9
NCCCC[C@H](N)C(=O)N[C@@H](Cc1c(Sc2ccccc2[N+](=O)[O-])[nH]c2ccccc12)C(N)=O	26.3		13.5
NC(=O)[C@H](Cc1c(Sc2ccccc2[N+](=O)[O-])[nH]c2ccccc12)N1C(=O)N[C@@H](CCCCN=C(N2CCCC2)N2CCCC2)C1=O	60.4		10.7
NC(=O)[C@H](Cc1c(Sc2ccccc2[N+](=O)[O-])[nH]c2ccccc12)NC(=O)[C@H](CCCCN=C(N1CCCC1)N1CCCC1)N=C(N1CCCC1)N1CCCC1	97.2	27.3	6.8
NC[C@@H]1NC(=O)N([C@@H](Cc2c(Sc3ccccc3[N+](=O)[O-])[nH]c3ccccc23)C(N)=O)C1=O	29.9		18.4
NCCCC[C@@H]1NC(=O)N([C@@H](Cc2c(Sc3ccccc3[N+](=O)[O-])[nH]c3ccccc23)C(N)=O)C1=O	15.4		10.5
NC(=O)[C@H](Cc1c(Sc2ncccc2[N+](=O)[O-])[nH]c2ccccc12)N1C(=O)N[C@@H](CCCCN=C(N2CCCC2)N2CCCC2)C1=O	52.5		12.9
CC(=O)N[C@@H](CCCN=C(N)N)C(=O)N[C@@H](Cc1c(Sc2ccccc2[N+](=O)[O-])[nH]c2ccccc12)C(N)=O	29.2		25.8
CC(=O)N[C@@H](CCCCN=C(N(C)C)N(C)C)C(=O)N[C@@H](Cc1c(Sc2ccccc2[N+](=O)[O-])[nH]c2ccccc12)C(N)=O	19.9		6.1
NC(=O)[C@H](Cc1c(Sc2ccccc2[N+](=O)[O-])[nH]c2ccccc12)N1C(=O)N[C@@H](CN=C(N2CCCC2)N2CCCC2)C1=O	51.3		43.7
NC(=O)[C@H](Cc1c(Sc2ccccc2[N+](=O)[O-])[nH]c2ccccc12)N1C(=O)N[C@@H](CCN=C(N2CCCC2)N2CCCC2)C1=O	56.3		12
NC(=O)[C@H](Cc1c(Sc2ccccc2[N+](=O)[O-])[nH]c2ccccc12)N1C(=O)N[C@@H](CCCN=C(N)N)C1=O	50.2		20.2
CC(=O)N[C@@H](CCCCN)C(=O)N[C@@H](Cc1c(Sc2ccccc2[N+](=O)[O-])[nH]c2ccccc12)C(N)=O	14.3		15.4
NCC[C@H](N)C(=O)N[C@@H](Cc1c(Sc2ccccc2[N+](=O)[O-])[nH]c2ccccc12)C(N)=O	20.6		29.7
C[N+](C)(C)CCCC[C@@H]1NC(=O)N([C@@H](Cc2c(Sc3ccccc3[N+](=O)[O-])[nH]c3ccccc23)C(N)=O)C1=O	66.5	17.4	9.2
CC(=O)N[C@@H](CN)C(=O)N[C@@H](Cc1c(Sc2ccccc2[N+](=O)[O-])[nH]c2ccccc12)C(N)=O	14.6		27
NC(=O)[C@H](Cc1c(Sc2ccccc2[N+](=O)[O-])[nH]c2ccccc12)NC(=O)[C@@H](N)CCCN=C(N)N	62.8	18.7	7.7
NC(=O)[C@H](Cc1c(Sc2ccccc2[N+](=O)[O-])[nH]c2ccccc12)NC(=O)[C@@H](N)CCCCN=C(N1CCCC1)N1CCCC1	55.8		8.3
CN(C)C(=NCCCC[C@H](N)C(=O)N[C@@H](Cc1c(Sc2ccccc2[N+](=O)[O-])[nH]c2ccccc12)C(N)=O)N(C)C	49.7	21.1	69.7
CC(=O)N[C@@H](CCCCN=C(N1CCCC1)N1CCCC1)C(=O)N[C@@H](Cc1c(Sc2ncccc2[N+](=O)[O-])[nH]c2ccccc12)C(N)=O	16.6		30.2
CN(C)C(=NCCCC[C@@H]1NC(=O)N([C@@H](Cc2c(Sc3ccccc3[N+](=O)[O-])[nH]c3ccccc23)C(N)=O)C1=O)N(C)C	13		9.3
CC(=O)N[C@@H](CCCCN=C(N1CCCC1)N1CCCC1)C(=O)N[C@@H](Cc1c(Sc2ccccc2[N+](=O)[O-])[nH]c2ccccc12)C(N)=O	44		6.4
CC(=O)N[C@@H](CCN)C(=O)N[C@@H](Cc1c(Sc2ccccc2[N+](=O)[O-])[nH]c2ccccc12)C(N)=O	27.6		27.2
CC(=O)N[C@@H](CN=C(N1CCCC1)N1CCCC1)C(=O)N[C@@H](Cc1c(Sc2ccccc2[N+](=O)[O-])[nH]c2ccccc12)C(N)=O	49.9		30.3
CC(=O)N[C@@H](CCCCN=C(N(C)C)N(C)C)C(=O)N[C@@H](Cc1c(Sc2ncccc2[N+](=O)[O-])[nH]c2ccccc12)C(N)=O	12		20.6

Now from value to compound:

inhibition [1] [%]	inhibition [2] [%]	inhibition [3] [%]	SMILES
12.7		13.6	CC(=O)N[C@@H](CCCCN)C(=O)N[C@@H](Cc1c(Sc2ncccc2[N+](=O)[O-])[nH]c2ccccc12)C(N)=O
36.7		5.5	C[N+](C)(C)CCCC[C@H](N)C(=O)N[C@@H](Cc1c(Sc2ccccc2[N+](=O)[O-])[nH]c2ccccc12)C(N)=O
23.9		26.3	CC(=O)N[C@@H](CCCN=C(N)N)C(=O)N[C@@H](Cc1c(Sc2ncccc2[N+](=O)[O-])[nH]c2ccccc12)C(N)=O
11		16	NCC[C@@H]1NC(=O)N([C@@H](Cc2c(Sc3ccccc3[N+](=O)[O-])[nH]c3ccccc23)C(N)=O)C1=O
44.8		20.6	NC(=O)[C@H](Cc1c(Sc2ncccc2[N+](=O)[O-])[nH]c2ccccc12)NC(=O)[C@@H](N)CCCN=C(N)N
40.9		10.8	CN(C)C(=NCCCC[C@@H]1NC(=O)N([C@@H](Cc2c(Sc3ncccc3[N+](=O)[O-])[nH]c3ccccc23)C(N)=O)C1=O)N(C)C
17		23.6	NCCCC[C@H](N)C(=O)N[C@@H](Cc1c(Sc2ncccc2[N+](=O)[O-])[nH]c2ccccc12)C(N)=O
39.3		24	NC[C@H](N)C(=O)N[C@@H](Cc1c(Sc2ccccc2[N+](=O)[O-])[nH]c2ccccc12)C(N)=O
42.4		9.6	CC(=O)N[C@@H](CCN=C(N1CCCC1)N1CCCC1)C(=O)N[C@@H](Cc1c(Sc2ccccc2[N+](=O)[O-])[nH]c2ccccc12)C(N)=O
24.6		26.8	NCCCC[C@@H]1NC(=O)N([C@@H](Cc2c(Sc3ncccc3[N+](=O)[O-])[nH]c3ccccc23)C(N)=O)C1=O
29		32.2	CC(=O)N[C@@H](CCCC[N+](C)(C)C)C(=O)N[C@@H](Cc1c(Sc2ccccc2[N+](=O)[O-])[nH]c2ccccc12)C(N)=O
54.3		24.2	NC(=O)[C@H](Cc1c(Sc2ncccc2[N+](=O)[O-])[nH]c2ccccc12)N1C(=O)N[C@@H](CCCN=C(N)N)C1=O
19.9		20.6	C[N+](C)(C)CCCC[C@@H]1NC(=O)N([C@@H](Cc2c(Sc3ncccc3[N+](=O)[O-])[nH]c3ccccc23)C(N)=O)C1=O
